For 7 compounds, MIC results are on record in DBAASP.

Among the test systems are Escherichia coli TOP 10; Escherichia coli NDM; Bacillus subtilis 168 HT; Cryptococcus neoformans.
Holding throughout (test): ≥ marks a high value that may be exact or a test limit, other limits are often not marked, values filed in µg/mL are converted to µM
Experiment [1] relates to Mannheimia haemolytica 82-25.
The test system of experiment [2] is Trichosporon beigelii KCTC 7707.
The subject of experiment [3] is Malassezia furfur KCTC 7744.
The subject of experiment [4] is Staphylococcus aureus ATCC 25923.
Experiment [5] deals with Streptococcus mutans KCTC 3065.
Experiment [6] concerns Escherichia coli O157:H7 ATCC 43895.
In experiment [7] the test system is Enterococcus faecium ATCC 29212.
For experiment [8], the system named is Pseudomonas aeruginosa ATCC 27853.
The test system of experiment [9] is Candida albicans ATCC 90028.
Experiment [10] concerns Vibrio vulnificus ATCC 29307.
Experiment [11] relates to Escherichia coli ATCC 9723H.
Experiment [12] has as its system Staphylococcus aureus ATCC 6538P.
Experiment [13] has as its system Escherichia coli ATCC 25922.
For experiment [14], the system named is Staphylococcus haemolyticus 527.
In experiment [15] the test system is Escherichia coli K12 MG1655.
Experiment [16] concerns Staphylococcus aureus ST88.
Experiment [17] deals with Candida parapsilosis ATCC 22019.
Experiment [18] has as its system Pseudomonas aeruginosa ATCC BAA-427.
Experiment [19] has as its system Staphylococcus aureus ATCC 700698.
Experiment [20] has as its system Candida albicans ATCC 10231.
The test system of experiment [21] is Bacillus subtilis ATCC 6633.
The subject of experiment [22] is Staphylococcus aureus ATCC 29213.
For experiment [23], the system named is Klebsiella pneumoniae ATCC 27736.
For experiment [24], the system named is Staphylococcus aureus ATCC 33592.
The test system of experiment [25] is Staphylococcus aureus ATCC BAA-44.
Experiment [26] deals with Escherichia coli ATCC 9637.
Experiment [27] has as its system Staphylococcus aureus ATCC 700699.
In experiment [28] the test system is Pseudomonas aeruginosa 910.
The test system of experiment [29] is Pseudomonas aeruginosa PAO1.
Experiment [30] has as its system Pseudomonas aeruginosa 253.
Experiment [31] has as its system Pseudomonas aeruginosa 919.

In brackets after ≈: the same amount, converted by molar mass. Several values for one entry are separate records, joined by “and”; a condition that tells them apart may be missing. Equal entries are not always repeated.

In the case of `CC[C@H](C)[C@H](NC(=O)[C@@H](N)CCC(=O)O)C(=O)N[C@@H](CCC(=O)O)C(=O)N[C@@H](Cc1ccc(O)cc1)C(=O)NCC(=O)N[C@@H](CC(N)=O)C(=O)N1CCC[C@H]1C(=O)NCC(=O)N[C@H](C(=O)NCC(=O)N[C@H](C(=O)N[C@@H](CC(=O)O)C(=O)N[C@@H](CCCN=C(N)N)C(N)=O)[C@@H](C)O)C(C)C` [EIEYGNPGVGTDR], the MIC with Escherichia coli TOP 10 is at least 71.1 µM.
In experiment [1], `NCCCC[C@H](NC(=O)[C@H](CC(=O)O)NC(=O)[C@H](CC(=O)O)NC(=O)[C@H](CC(=O)O)NC(=O)CN)C(=O)O` [GDDDK] showed a minimal inhibitory concentration (MIC) of at least 200 µM.
Turning to `CC(C)C[C@H](N)C(=O)N[C@@H](CCCN=C(N)N)C(=O)N[C@@H](CCC(N)=O)C(=O)N[C@@H](CO)C(=O)N[C@@H](CCC(N)=O)C(=O)N[C@@H](Cc1ccccc1)C(=O)N[C@H](C(=O)NCC(=O)N[C@@H](CO)C(=O)N[C@@H](CCCN=C(N)N)C(N)=O)C(C)C` [LRQSQFVGSR], the minimal inhibitory concentration (MIC) in experiment [2] was 21.3 µM (≈ 25.1 µg/mL); in [3], at least 42.5 µM; in experiment [4] it was 42.5 µM (≈ 50 µg/mL); in experiment [5], 21.3 µM (≈ 25.1 µg/mL); in experiment [6], 10.6 µM (≈ 12.5 µg/mL); in experiment [7] it was 21.3 µM (≈ 25.1 µg/mL). Further, the figures for the MIC in experiment [8], in [9] and in [10] were 21.3 µM (≈ 25.1 µg/mL), at least 42.5 µM and at least 42.5 µM, respectively.
Regarding `CC[C@H](C)[C@H](NC(=O)[C@@H](NC(=O)[C@@H]1CCCN1C(=O)[C@H](CC(C)C)NC(=O)[C@H](Cc1ccccc1)NC(=O)[C@H](CCCCN)NC(=O)[C@H](CC(N)=O)NC(=O)[C@H](C)NC(=O)[C@H](CC(C)C)NC(=O)[C@@H]1CCCN1C(=O)[C@H](CC(C)C)NC(=O)[C@@H](NC(=O)[C@H](CCCN=C(N)N)NC(=O)[C@@H]1CCCN1C(=O)[C@H](Cc1ccccc1)NC(=O)[C@@H](N)Cc1ccccc1)C(C)C)[C@@H](C)O)C(=O)N[C@@H](Cc1ccc(O)cc1)C(=O)N[C@@H](CS)C(=O)N[C@@H](C)C(=O)N[C@@H](CC(C)C)C(=O)N1CCC[C@H]1C(=O)N[C@@H](CCCCN)C(=O)N[C@@H](CO)C(=O)N[C@H](C(=O)NCC(=O)N[C@@H](CC(N)=O)C(=O)O)C(C)C` [FFPRVLPLANKFLPTIYCALPKSVGN], the MIC in experiment [11] is 15.6 µM (≈ 45.2 µg/mL); with Escherichia coli NDM, 6 µM (≈ 17.4 µg/mL); in experiment [12], at least 88 µM; in experiment [13] it was 6 µM (≈ 17.4 µg/mL).
As for `CC[C@H](C)[C@H](N)C(=O)N[C@H](C(=O)N[C@@H](CCCCN)C(=O)N[C@@H](CCCN=C(N)N)C(=O)N[C@@H](Cc1ccccc1)C(=O)N[C@@H](Cc1ccccc1)C(=O)N[C@@H](CCCN=C(N)N)C(=O)N[C@H](C(=O)N[C@@H](CO)C(=O)N[C@@H](Cc1ccc(O)cc1)C(=O)N[C@@H](CCCCN)C(=O)N[C@@H](CC(C)C)C(=O)N[C@@H](CCC(N)=O)C(=O)N[C@@H](CO)C(=O)N[C@@H](CC(C)C)C(=O)N[C@@H](CCCCN)C(=O)N[C@H](C(=O)N[C@H](C(=O)N[C@@H](CCCCN)C(=O)NCC(=O)N[C@@H](CCCCN)C(=O)N[C@@H](CCCN=C(N)N)C(=O)N[C@H](C(=O)N[C@@H](Cc1ccccc1)C(=O)N[C@H](C(=O)O)[C@@H](C)O)[C@@H](C)O)[C@@H](C)CC)[C@@H](C)CC)[C@@H](C)CC)C(C)C` [IVKRFFRISYKLQSLKIIKGKRTFT], the MIC in [14] is 5.3 µM (≈ 16.3 µg/mL); in experiment [15] it was 10.5 µM (≈ 32.3 µg/mL); in experiment [16], at least 100 µM; with Bacillus subtilis 168 HT, 5.3 µM (≈ 16.3 µg/mL).
On to `CC[C@H](C)[C@H](NC(=O)[C@H](CCCN=C(N)N)NC(=O)CNC(=O)[C@H](CC(C)C)NC(=O)[C@H](CCCCN)NC(=O)[C@H](CCCCN)NC(=O)[C@H](Cc1c[nH]c2ccccc12)NC(=O)[C@H](Cc1ccccc1)NC(=O)[C@H](CO)NC(=O)[C@H](CCCCN)NC(=O)[C@@H](NC(=O)[C@@H](N)Cc1ccccc1)C(C)C)C(=O)N[C@@H](CC(C)C)C(N)=O` [FVKSFWKKLGRIL], for which the MIC was 6 µM (≈ 9.73 µg/mL) in experiment [17]; 3.8 µM and 7.6 µM in experiment [4]; 6.8 µM (≈ 11 µg/mL) in [18]; 12 µM (≈ 19.5 µg/mL) in experiment [19]; 6 µM (≈ 9.73 µg/mL) in experiment [20]; 3.8 µM (≈ 6.16 µg/mL) in experiment [21]. For the same compound, the minimum inhibitory concentration (MIC) was 12 µM (≈ 19.5 µg/mL) in experiment [22]; 3.8 µM (≈ 6.16 µg/mL) in [23]; 6 µM (≈ 9.73 µg/mL) in the experiment with Cryptococcus neoformans; 12 µM (≈ 19.5 µg/mL) in [24]; 12 µM (≈ 19.5 µg/mL) in experiment [25]; 1.9 µM (≈ 3.08 µg/mL) in experiment [13]. The MIC is 6.25 µM (≈ 10.1 µg/mL) in experiment [26] and 12 µM (≈ 19.5 µg/mL) in [27].
In the case of `CC[C@H](C)[C@H](NC(=O)[C@@H](N)Cc1ccccc1)C(=O)N[C@@H](CCCCN)C(=O)N[C@@H](Cc1c[nH]c2ccccc12)C(=O)N[C@@H](CCCCN)C(=O)N[C@@H](CCCCN)C(=O)N[C@@H](CCCN=C(N)N)C(=O)N[C@@H](Cc1c[nH]c2ccccc12)C(=O)N[C@@H](Cc1c[nH]c2ccccc12)C(=O)N[C@@H](CCCCN)C(=O)N[C@@H](CCCCN)C(=O)N[C@@H](CCCN=C(N)N)C(=O)N[C@H](C(N)=O)[C@@H](C)O` [FIKWKKRWWKKRT], the MIC in experiment [28] was 8 µM (≈ 15.1 µg/mL); in [29], 4 µM (≈ 7.56 µg/mL); in [30], 16 µM (≈ 30.2 µg/mL); in experiment [31], at least 32 µM.

As usually defined, the MIC is the least concentration at which growth counts as inhibited.
